In patent publication US10208074B2, “Pyrazole compounds and method for making and using the compounds” (Rigel Pharmaceuticals, Inc., priority 2015, dated 2019) one finds EC50 data, which are given here for 23 compounds.

Molecules are shown by their SMILES. Counter-ions that a name gives are not always drawn. Like-named read-outs stand apart in the source and are kept apart here.

One experiment deals with IL-23p19. Kind of experiment: LPS induced IL23p19 in THP-1 cells (with IFNγ primed) assay. The format is cell-based, Human. In a few lines: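 THP-1 cells primed ~18 h with IFNγ (50 ng/mL), pre-incubated 1 h with compound at 37 °C, then stimulated 18 h with LPS (1 ug/mL final). Supernatant IL-23p19 measured by sandwich ELISA with chemiluminescent read-out; EC50 from curve fitting. Toxicity checked on the remaining cells by Cell Titer Glo.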

The subject of the next experiment is IL-23 (p19/p40). Kind of experiment: IL23-p19 ELISA, Dendritic, LPS (compound screening using DC cells). Format: cell-based, Human. In short, it runs like this:
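Human PBMC-derived dendritic cells (7 d GM-CSF 100 ng/ml + IL-4 20 ng/ml), primed 24 h with IFNγ 50 ng/ml, pre-incubated 1 h with compound, then stimulated 18 h with LPS 1 μg/ml. Supernatant IL-23 measured by p19-capture/p40-detection chemiluminescent ELISA; CellTiter Glo checks cytotoxicity.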

The mark [1] stands for this setting: THP-1 cells, IFNγ primed, LPS 1 ug/mL, 18 hours, 10 pt, read-out: IL23-p19 ELISA, THP1-IFNy, LPS, 10 pt EC50.
The mark [2] stands for this setting: PBMC-derived DC cells, IFNγ primed, LPS 1 μg/ml, 18 hours, 10 pt, read-out: IL23-p19 ELISA, Dendritic, LPS, 10 pt, EC50.
[3] abbreviates: Homo sapiens, THP-1, 18 h, THP-1 cells, IFNγ primed, LPS 1 ug/mL, 18 hours, 10 pt, read-out: IL23-p19 ELISA, THP1-IFNy, LPS, 10 pt EC50.
The mark [4] stands for this setting: Homo sapiens, 18 h, PBMC-derived DC cells, IFNγ primed, LPS 1 μg/ml, 18 hours, 10 pt, read-out: IL23-p19 ELISA, Dendritic, LPS, 10 pt, EC50.

The term EC50 denotes the concentration needed to bring the measured effect to its halfway point. Turning to `CCO[C@H]1C[C@@H](n2cc(NC(=O)c3csc(-c4cnn(COP(=O)(O)O)c4)n3)c(-c3ccccn3)n2)C1` [II-83, (4-(4-((1-((1,3-cis)-3-ethoxycyclobutyl)-3-(pyridin-2-yl)-1H-pyrazol-4-yl)carbamoyl)thiazol-2-yl)-1H-pyrazol-1-yl)methyl dihydrogen phosphate], the EC50 in the experiment with IL-23p19 (setting [1]) came out at 0.0863 µM; with IL-23 (p19/p40) (setting [2]) it was 0.241 µM.
Turning to `O=C(Nc1cn(C2CCOCC2)nc1-c1nccs1)c1csc(-c2cn[nH]c2)n1` [II-111, 2-(1H-pyrazol-4-yl)-N-(1-(tetrahydro-2H-pyran-4-yl)-3-(thiazol-2-yl)-1H-pyrazol-4-yl)thiazole-4-carboxamide], the EC50 was 0.0651 µM in the experiment on IL-23p19 (setting [3]) and 0.0343 µM in the experiment on IL-23 (p19/p40) (setting [4]).
`Cc1n[nH]cc1-c1ccc(C(=O)Nc2cn(C3COC3)nc2-c2ccccn2)o1` [Compound I-30, 5-(3-methyl-1H-pyrazol-4-yl)-N-(1-(oxetan-3-yl)-3-(pyridin-2-yl)-1H-pyrazol-4-yl)furan-2-carboxamide]: the EC50 in the experiment on IL-23p19 (setting [3]) turned out to be 0.038 µM; in the experiment with IL-23 (p19/p40) (setting [4]), 0.0589 µM.
For the compound `CCOCCn1cc(NC(=O)c2ccc(-c3c[nH]nc3C(F)(F)F)o2)c(-c2ccccn2)n1` [Compound I-41, N-(1-(2-ethoxyethyl)-3-(pyridin-2-yl)-1H-pyrazol-4-yl)-5-(3-(trifluoromethyl)-1H-pyrazol-4-yl)furan-2-carboxamide formate], the EC50 turned out to be 2.57 µM in the experiment with IL-23p19 (setting [3]) and 3.95 µM in the experiment with IL-23 (p19/p40) (setting [4]).
For `CCO[C@H]1C[C@@H](n2cc(NC(=O)c3csc(-c4cn[nH]c4)n3)c(-c3nnco3)n2)C1` [II-74, N-(1-((1s,3s)-3-ethoxycyclobutyl)-3-(1,3,4-oxadiazol-2-yl)-1H-pyrazol-4-yl)-2-(1H-pyrazol-4-yl)thiazole-4-carboxamide] the same measures were 0.401 µM and 0.405 µM.
Regarding `O=C(Nc1cn(C2CCOCC2)nc1-c1ccccn1)c1ccc(-c2cn[nH]c2)o1` [Compound I-23, 5-(1H-pyrazol-4-yl)-N-(3-(pyridin-2-yl)-1-(tetrahydro-2H-pyran-4-yl)-1H-pyrazol-4-yl)furan-2-carboxamide], the EC50 in the experiment with IL-23p19 (setting [3]) was 0.0217 µM; in the experiment on IL-23 (p19/p40) (setting [4]), 0.0372 µM.
With `O=C(Nc1cn(C2CN(C(=O)C3CC3(F)F)C2)nc1-c1ccccn1)c1ccc(-c2cn[nH]c2)o1` (stereo not shown) [Compound I-103, N-[1-{1-(2,2-difluorocyclopropane-1-carbonyl)azetidin-3-yl}-3-(pyridine-2-yl)-1H-pyrazol-4-yl]-5-(1H-pyrazol-4-yl)furan-2-carboxamide, formate salt], the EC50 came out at 0.031 µM in the experiment with IL-23p19 (setting [3]) and 0.0554 µM in the experiment on IL-23 (p19/p40) (setting [4]).
Turning to `CC(=O)N1CC(n2cc(NC(=O)c3ccc(-c4cn[nH]c4)o3)c(-c3ccccn3)n2)C1` [Compound I-83, N-{1-(1-Acetylazetidin-3-yl)-3-(pyridine-2-yl)-1H-pyrazol-4-yl}-5-(1H-pyrazol-4-yl)furan-2-carboxamide, free base], the EC50 in the experiment on IL-23p19 (setting [3]) worked out at 0.0348 µM; in the experiment on IL-23 (p19/p40) (setting [4]), 0.0932 µM.
On to `COc1ccc(-c2nn(C)cc2NC(=O)c2ccc(-c3cn[nH]c3)o2)nc1` [Compound I-109, N-(3-(5-methoxypyridin-2-yl)-1-methyl-1H-pyrazol-4-yl)-5-(1H-pyrazol-4-yl)furan-2-carboxamide], for which the EC50 with IL-23p19 (setting [3]) was found to be 0.104 µM; with IL-23 (p19/p40) (setting [4]), 0.0221 µM.
Take `CCO[C@H]1C[C@@H](n2cc(NC(=O)c3ccc(-c4cn[nH]c4)o3)c(-c3cc(F)ccn3)n2)C1` [Compound I-148, N-(1-((1s,3s)-3-ethoxycyclobutyl)-3-(4-fluoropyridin-2-yl)-1H-pyrazol-4-yl)-5-(1H-pyrazol-4-yl)furan-2-carboxamide formate]: the EC50 was 0.173 µM in the experiment on IL-23p19 (setting [3]) and 0.11 µM with IL-23 (p19/p40) (setting [4]).
Turning to `Cn1cc(NC(=O)c2ccc(-c3cn[nH]c3)o2)c(-c2ccccn2)n1` [Compound I-77, N-{1-Methyl-3-(pyridine-2-yl)-1H-pyrazol-4-yl}-5-(1H-pyrazol-4-yl)furan-2-carboxamide, free base], the concentration for a half-maximal effect (EC50) with IL-23p19 (setting [1]) amounted to 0.0504 µM; with IL-23 (p19/p40) (setting [2]) it was 0.041 µM.
Consider `O=C(Nc1cn(CC2CC(O)C2)nc1-c1ccccn1)c1csc(-c2cn[nH]c2)n1` (stereo not shown) [II-123, N-(1-(((1r,3r)-3-hydroxycyclobutyl)methyl)-3-(pyridin-2-yl)-1H-pyrazol-4-yl)-2-(1H-pyrazol-4-yl)thiazole-4-carboxamide], for which the EC50 in the experiment on IL-23p19 (setting [3]) turned out to be 0.0271 µM; in the experiment with IL-23 (p19/p40) (setting [4]), 0.149 µM.
Take `COCCn1cc(NC(=O)c2ccc(-c3cnn(COP(=O)(O)O)c3)o2)c(-c2ccccn2)n1` [Compound I-14, sodium (4-(5-((1-(2-methoxyethyl)-3-(pyridin-2-yl)-1H-pyrazol-4-yl)carbamoyl)furan-2-yl)-1H-pyrazol-1-yl)methyl phosphate]: the concentration for a half-maximal effect (EC50) in the experiment on IL-23p19 (Homo sapiens, THP-1, 18 h, read-out: IL23-p19 ELISA, THP1-IFNy, LPS, 10 pt EC50 (μM)) came out at 1.25 µM; with IL-23 (p19/p40) (Homo sapiens, 18 h, read-out: IL23-p19 ELISA, Dendritic, LPS, 10 pt, EC50 (μM)) it was 0.571 µM.
For `Cn1cc(NC(=O)c2ccc(-c3cnn(COP(=O)(OC(C)(C)C)OC(C)(C)C)c3)o2)c(-c2ccccn2)n1` [Compound I-80, Di-tert-butyl-[[4-{4-(5-((1-methyl-3-(pyridine-2-yl)-1H-pyrazol-4-yl)carbamoyl)furan-2-yl)-1H-pyrazol-1-yl}methyl] phosphate], the EC50 stood at 2.22 µM with IL-23p19 (setting [3]) and 2.06 µM with IL-23 (p19/p40) (setting [4]).
As for `COCCOCCn1cc(NC(=O)c2ccc(-c3cn[nH]c3)o2)c(-c2ccccn2)n1` [Compound I-17, N-(1-(2-(2-methoxyethoxy)ethyl)-3-(pyridin-2-yl)-1H-pyrazol-4-yl)-5-(1H-pyrazol-4-yl)furan-2-carboxamide hydrochloride salt], the EC50 was found to be 0.285 µM with IL-23p19 (THP-1 cells, IFNγ primed, LPS 1 ug/mL, 18 hours, 10 pt, hydrochloride salt, read-out: IL23-p19 ELISA, THP1-IFNy, LPS, 10 pt EC50) and 0.424 µM in the experiment with IL-23 (p19/p40) (PBMC-derived DC cells, IFNγ primed, LPS 1 μg/ml, 18 hours, 10 pt, hydrochloride salt, read-out: IL23-p19 ELISA, Dendritic, LPS, 10 pt, EC50).
`CCO[C@H]1C[C@@H](n2cc(NC(=O)c3csc(-c4cn[nH]c4)n3)c(-c3cc(F)ccn3)n2)C1` [II-158, N-(1-((cis)-3-ethoxycyclobutyl)-3-(4-fluoropyridin-2-yl)-1H-pyrazol-4-yl)-2-(1H-pyrazol-4-yl)thiazole-4-carboxamide]: the 50% effective concentration (EC50) in the experiment on IL-23p19 (setting [3]) turned out to be 0.144 µM; in the experiment with IL-23 (p19/p40) (setting [4]), 0.0921 µM.
`O=C(Nc1cn([C@H]2C[C@@H](O)C2)nc1-c1ccccn1)c1csc(-c2cn[nH]c2)n1` [II-14, N-(1-((1,3-cis)-3-hydroxycyclobutyl)-3-(pyridin-2-yl)-1H-pyrazol-4-yl)-2-(1H-pyrazol-4-yl)thiazole-4-carboxamide]: the EC50 in the experiment on IL-23p19 (setting [3]) amounted to 0.0434 µM; in the experiment with IL-23 (p19/p40) (setting [4]), 0.0057 µM.
Take `CC(C)O[C@H]1C[C@@H](n2cc(NC(=O)c3csc(-c4cn[nH]c4)n3)c(-c3ccccn3)n2)C1` [II-76, N-(1-((1,3-cis)-3-isopropoxycyclobutyl)-3-(pyridin-2-yl)-1H-pyrazol-4-yl)-2-(1H-pyrazol-4-yl)thiazole-4-carboxamide]: the EC50 in the experiment on IL-23p19 (setting [3]) was 0.0524 µM; in the experiment on IL-23 (p19/p40) (setting [4]) it was 0.0475 µM.
As to `CCO[C@H]1C[C@@H](n2cc(NC(=O)c3csc(-c4cnn(COP(=O)(O)O)c4)n3)c(-c3ccccn3)n2)C1` [II-78, (4-(4-((1-((1,3-cis)-3-ethoxycyclobutyl)-3-(pyridin-2-yl)-1H-pyrazol-4-yl)carbamoyl)thiazol-2-yl)-1H-pyrazol-1-yl)methyl phosphate calcium salt], the EC50 with IL-23p19 (THP-1 cells, IFNγ primed, LPS 1 ug/mL, 18 hours, 10 pt, phosphate calcium salt, read-out: IL23-p19 ELISA, THP1-IFNy, LPS, 10 pt EC50) turned out to be 0.165 µM; in the experiment with IL-23 (p19/p40) (PBMC-derived DC cells, IFNγ primed, LPS 1 μg/ml, 18 hours, 10 pt, phosphate calcium salt, read-out: IL23-p19 ELISA, Dendritic, LPS, 10 pt, EC50) it was 0.0799 µM.
As to `O=C(Nc1cn(CCN2CCOCC2)nc1-c1ccccn1)c1ccc(-c2cn[nH]c2)o1` [Compound I-111, N-(1-(2-morpholinoethyl)-3-(pyridin-2-yl)-1H-pyrazol-4-yl)-5-(1H-pyrazol-4-yl)furan-2-carboxamide], the values for the EC50 in the experiment with IL-23p19 (setting [3]) and with IL-23 (p19/p40) (setting [4]) were 0.0291 µM and 0.0268 µM, respectively.
The like results for `CCO[C@H]1C[C@@H](n2cc(NC(=O)c3csc(-c4cn[nH]c4)n3)c(-c3ncccc3C(F)(F)F)n2)C1` [II-89, N-(1-((1,3-cis)-3-ethoxycyclobutyl)-3-(3-(trifluoromethyl)pyridin-2-yl)-1H-pyrazol-4-yl)-2-(1H-pyrazol-4-yl)thiazole-4-carboxamide] were, in that order, 0.589 µM and 1.13 µM.
The like results for `O=C(Nc1cn(CCOCCF)nc1-c1ccccn1)c1csc(-c2cn[nH]c2)n1` [II-118, N-(1-(2-(2-fluoroethoxy)ethyl)-3-(pyridin-2-yl)-1H-pyrazol-4-yl)-2-(1H-pyrazol-4-yl)thiazole-4-carboxamide] were, in that order, 0.109 µM and 0.211 µM.
In the case of `COC1CC(n2cc(NC(=O)c3ccc(-c4cn[nH]c4)o3)c(-c3ccccn3)n2)C1` (stereo not drawn) [Compound I-71, N-{1-(3-Methoxycyclobutyl)-3-(pyridine-2-yl)-1H-pyrazol-4-yl}-5-(1H-pyrazol-4-yl)furan-2-carboxamide, formate salt, Cis isomer], the 50% effective concentration (EC50) came to 0.0265 µM in the experiment with IL-23p19 (setting [1]) and 0.0225 µM with IL-23 (p19/p40) (setting [2]).
